Among the data in patent publication US10669261B2, “Heteroarylhydroxypyrimidinones as agonists of the APJ receptor” (BRISTOL-MYERS SQUIBB COMPANY, priority 2015, dated 2020) are EC50 values, retold here.

One assay concerns the target T1, human APJ receptor (Homo sapiens, UniProt P35414).
T1 construct: expressed in transfected cells
T1 sequence (P35414 1-380): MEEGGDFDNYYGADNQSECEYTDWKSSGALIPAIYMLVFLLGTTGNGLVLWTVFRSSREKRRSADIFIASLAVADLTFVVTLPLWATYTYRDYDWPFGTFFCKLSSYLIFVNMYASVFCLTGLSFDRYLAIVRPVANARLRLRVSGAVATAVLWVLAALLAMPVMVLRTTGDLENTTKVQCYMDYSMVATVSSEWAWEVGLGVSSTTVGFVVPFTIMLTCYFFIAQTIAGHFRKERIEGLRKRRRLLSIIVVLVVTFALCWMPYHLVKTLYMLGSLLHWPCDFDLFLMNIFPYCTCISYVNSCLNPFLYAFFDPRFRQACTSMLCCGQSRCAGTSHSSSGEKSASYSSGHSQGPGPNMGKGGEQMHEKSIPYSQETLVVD
The experiment in a line: Intracellular cAMP accumulation assay (APJ hcAMP, HTRF). Format: cell-based. The settings on record: HEK293 cells stably expressing human APJ receptor; inhibition of forskolin-mediated cAMP production; stated at end of example; read-out: Human APJ cAMP Potency Range. On the procedure:
Intracellular cAMP Accumulation Assay
HEK293 cells stably expressing human APJ receptor were used to assess the activity of compounds. Cultured cells were detached and resuspended in the cAMP Homogeneous Time-Resolved Fluorescence (HTRF) assay buffer (Cisbio cat; #62AM4PEJ). The assay was performed in 384-well assay plates (Perkin-Elmer; cat #6008289) according to assay protocol provided by the manufacturer. Serial dilutions of a compound together with assay buffer containing […] IBMX and 2 μM forskolin were added to each well containing 5,000 cells and incubated for 30 minutes at room temperature. Subsequently, cAMP D2 reagent was added in the lysis buffer followed by the EuK antibody (Cisbio; cat #62AM4PEJ) and incubated for 60 min. The fluorescence emission ratio was measured using fluorometer. The intracellular cAMP concentrations (compound-stimulated inhibition of forskolin-mediated cAMP production) were calculated by extrapolation from a standard curve using known cAMP concentrations. The EC50 values were obtained by fitting the data to a sigmoidal concentration-response curve with variable slope. The maximal achievable inhibition of forskolin-induced cAMP levels (Ymax) for each compound was expressed as relative percentage of inhibition attained using pyroglutamated apelin-13 ((Pyr1)apelin-13) peptide, which was set to 100%.
The examples disclosed below were tested in the APJ in vitro assays described above and were found having human APJ cyclic AMP (hcAMP) activity. The EC50 value of each compound is presented at the end of the example description.
The biological activity of the exemplified compounds of this invention determined by the assay described above is shown at the end of each example.
(In general: Changes in cAMP serve as a functional read-out for many G protein-coupled receptors.)
In the case of `[2H]C([2H])([2H])Oc1cccc(OC([2H])([2H])[2H])c1-n1c(CCCC)nc(=O)c(-c2nnc(Cc3noc4ccccc34)o2)c1O` [Example 48, 5-(5-(Benzo[d]isoxazol-3-ylmethyl)-1,3,4-oxadiazol-2-yl)-2-butyl-1-(2,6-di[^2H3]methoxyphenyl)-6-hydroxypyrimidin-4(1H)-one], the EC50 lay in the range of 0.01 to 10 nM.
`CCN(CC)C(=O)Cc1nnc(-c2c(O)n(-c3c(OC)cccc3OC)c(CCC3CC3)nc2=O)o1` [Example 52, 2-(5-(2-(2-Cyclopropylethyl)-1-(2,6-dimethoxyphenyl)-6-hydroxy-4-oxo-1,4-dihydropyrimidin-5-yl)-1,3,4-oxadiazol-2-yl)-N,N-diethylacetamide]: the EC50 fell in the range of 0.01 to 10 nM.
On to `COc1cccc(OC)c1-n1c(CCC2CC2)nc(=O)c(-c2nnc(CN(C)C(=O)c3ccccn3)o2)c1O` [Example 53, N-((5-(2-(2-cyclopropylethyl)-1-(2,6-dimethoxyphenyl)-6-hydroxy-4-oxo-1,4-dihydropyrimidin-5-yl)-1,3,4-oxadiazol-2-yl)methyl)-N-methylpicolinamide], for which the EC50 lay within 0.01 to 10 nM.

Staying with this assay, now noted: Table 1; HEK293 cells stably expressing human APJ receptor; read-out: hAPJ cAMP EC50 Potency range.
For `[2H]C([2H])([2H])Oc1cccc(OC([2H])([2H])[2H])c1-n1c(CCCC)nc(=O)c(-c2nnc(Cc3ccc(Cl)cc3)o2)c1O` [Example 49, 1-[2,6-bis(^2H3)methoxyphenyl]-2-butyl-5-{5-[(4-chlorophenyl)methyl]-1,3,4-oxadiazol-2-yl}-6-hydroxy-1,4-dihydropyrimidin-4-one], the EC50 is 0.01 to 10 nM.
Still for that read-out and setting: the result for `[2H]C([2H])([2H])Oc1cccc(OC([2H])([2H])[2H])c1-n1c(COCC)nc(=O)c(-c2nnc(Cc3noc4ccccc34)o2)c1O` [Example 50, 5-[5-(1,2-benzoxazol-3-ylmethyl)-1,3,4-oxadiazol-2-yl]-1-[2,6-bis(^2H3)methoxyphenyl]-2-(ethoxymethyl)-6-hydroxy-1,4-dihydropyrimidin-4-one] reads 0.01 to 10 nM; that for `[2H]C([2H])([2H])Oc1cccc(OC([2H])([2H])[2H])c1-n1c(COCC)nc(=O)c(-c2nnc(Cc3ccc(Cl)cc3)o2)c1O` [Example 51, 1-[2,6-bis(^2H3)methoxyphenyl]-5-{5-[(4-chlorophenyl)methyl]-1,3,4-oxadiazol-2-yl}-2-(ethoxymethyl)-6-hydroxy-1,4-dihydropyrimidin-4-one], 0.01 to 10 nM.
Same read-out and setting: the result for `COc1cccc(OC)c1-n1c(CCC2CC2)nc(=O)c(-c2nnc(CN(C)C(=O)c3ccccn3)o2)c1O` [Example 54, N-({5-[2-(2-cyclopropylethyl)-1-(2,6-dimethoxyphenyl)-6-hydroxy-4-oxo-1,4-dihydropyrimidin-5-yl]-1,3,4-oxadiazol-2-yl}methyl)-N-methylpyridine-2-carboxamide] reads 0.01 to 10 nM; that for `COc1cccc(OC)c1-n1c(CCC2CC2)nc(=O)c(-c2nnc(CNC(=O)c3cccc(Cl)c3)o2)c1O` [Example 55, 3-chloro-N-({5-[2-(2-cyclopropylethyl)-1-(2,6-dimethoxyphenyl)-6-hydroxy-4-oxo-1,4-dihydropyrimidin-5-yl]-1,3,4-oxadiazol-2-yl}methyl)benzamide], 0.01 to 10 nM; that for `COc1cccc(OC)c1-n1c(CCC2CC2)nc(=O)c(-c2nnc(CNC(=O)c3cccnc3)o2)c1O` [Example 56, N-({5-[2-(2-cyclopropylethyl)-1-(2,6-dimethoxyphenyl)-6-hydroxy-4-oxo-1,4-dihydropyrimidin-5-yl]-1,3,4-oxadiazol-2-yl}methyl)pyridine-3-carboxamide], 0.01 to 10 nM.
For `COc1cccc(OC)c1-n1c(CCC2CC2)nc(=O)c(-c2nnc(CNC(=O)c3ccccc3)o2)c1O` [Example 57, N-({5-[2-(2-cyclopropylethyl)-1-(2,6-dimethoxyphenyl)-6-hydroxy-4-oxo-1,4-dihydropyrimidin-5-yl]-1,3,4-oxadiazol-2-yl}methyl)benzamide], the EC50 was in the range of 0.01 to 10 nM.
On the same count and under the same terms, the result for `COc1cccc(OC)c1-n1c(CCC2CC2)nc(=O)c(-c2nnc(CNC(=O)c3ccccn3)o2)c1O` [Example 58, N-({5-[2-(2-cyclopropylethyl)-1-(2,6-dimethoxyphenyl)-6-hydroxy-4-oxo-1,4-dihydropyrimidin-5-yl]-1,3,4-oxadiazol-2-yl}methyl)pyridine-2-carboxamide] reads 0.01 to 10 nM.
With `COc1cccc(OC)c1-n1c(CCC2CC2)nc(=O)c(-c2nnc(Cc3ccc(Cl)cn3)o2)c1O` [Example 59, 5-{5-[(5-chloropyridin-2-yl)methyl]-1,3,4-oxadiazol-2-yl}-2-(2-cyclopropylethyl)-1-(2,6-dimethoxyphenyl)-6-hydroxy-1,4-dihydropyrimidin-4-one], the EC50 is 0.01 to 10 nM.
Still for that read-out and setting: the result for `COc1cccc(OC)c1-n1c(COC(C)C)nc(=O)c(-c2nnc(Cc3ccc(Cl)cc3F)o2)c1O` [Example 60, 5-{5-[(4-chloro-2-fluorophenyl)methyl]-1,3,4-oxadiazol-2-yl}-1-(2,6-dimethoxyphenyl)-6-hydroxy-2-[(propan-2-yloxy)methyl]-1,4-dihydropyrimidin-4-one] reads 0.01 to 10 nM.
The same measure, in the same setting: the result for `COc1cccc(OC)c1-n1c(CCC2CC2)nc(=O)c(-c2nnc(Cc3ccc(F)cn3)o2)c1O` [Example 61, 2-(2-cyclopropylethyl)-1-(2,6-dimethoxyphenyl)-5-{5-[(5-fluoropyridin-2-yl)methyl]-1,3,4-oxadiazol-2-yl}-6-hydroxy-1,4-dihydropyrimidin-4-one] reads 0.01 to 10 nM; that for `COc1cccc(OC)c1-n1c(C2CCCC2)nc(=O)c(-c2nnc(Cn3ccccc3=O)o2)c1O` [Example 62, 2-cyclopentyl-1-(2,6-dimethoxyphenyl)-6-hydroxy-5-{5-[(2-oxo-1,2-dihydropyridin-1-yl)methyl]-1,3,4-oxadiazol-2-yl}-1,4-dihydropyrimidin-4-one], 0.01 to 10 nM.
For `COc1cccc(OC)c1-n1c(C2CCCC2)nc(=O)c(-c2nnc(Cc3ccc(Cl)nc3)o2)c1O` [Example 63, 5-{5-[(6-chloropyridin-3-yl)methyl]-1,3,4-oxadiazol-2-yl}-2-cyclopentyl-1-(2,6-dimethoxyphenyl)-6-hydroxy-1,4-dihydropyrimidin-4-one], the EC50 was in the range of 0.01 to 10 nM.
Same read-out and setting: as for `COc1cccc(OC)c1-n1c(C2CCCC2)nc(=O)c(-c2nnc(CN3CCCC3=O)o2)c1O` [Example 64, 2-cyclopentyl-1-(2,6-dimethoxyphenyl)-6-hydroxy-5-{5-[(2-oxopyrrolidin-1-yl)methyl]-1,3,4-oxadiazol-2-yl}-1,4-dihydropyrimidin-4-one], the figure is 0.01 to 10 nM.
With `COc1cccc(OC)c1-n1c(C2CCCC2)nc(=O)c(-c2nnc(Cc3csc(C)n3)o2)c1O` [Example 65, 2-cyclopentyl-1-(2,6-dimethoxyphenyl)-6-hydroxy-5-{5-[(2-methyl-1,3-thiazol-4-yl)methyl]-1,3,4-oxadiazol-2-yl}-1,4-dihydropyrimidin-4-one], the EC50 was 0.01 to 10 nM.
On the same count and under the same terms, as for `COc1cccc(OC)c1-n1c(C2CCCC2)nc(=O)c(-c2nnc(Cc3ccc(Cl)cn3)o2)c1O` [Example 66, 5-{5-[(5-chloropyridin-2-yl)methyl]-1,3,4-oxadiazol-2-yl}-2-cyclopentyl-1-(2,6-dimethoxyphenyl)-6-hydroxy-1,4-dihydropyrimidin-4-one], the figure is 0.01 to 10 nM; as for `COc1cccc(OC)c1-n1c(C2CCCC2)nc(=O)c(-c2nnc(Cc3ccc(F)cn3)o2)c1O` [Example 67, 2-cyclopentyl-1-(2,6-dimethoxyphenyl)-5-{5-[(5-fluoropyridin-2-yl)methyl]-1,3,4-oxadiazol-2-yl}-6-hydroxy-1,4-dihydropyrimidin-4-one], 0.01 to 10 nM.
